From patent publication US20210181109A1 (FUJIFILM Corporation, priority 2018, published 2021)
Where two headings read alike, the source gives them in different places.

Experiments:
[1] = NAC depletion percent, HPLC-fluorescence detection
Experimental: (§1) 1) To a 50 mL vessel, 11.6 mg (±0.1 mg) of NAC is weighed; to this, a 25 mL measuring pipet is used to add 20 mL of 100 mmol/L phosphate buffer (pH: 8.0); and the content is gently stirred using a test tube mixer to achieve dissolution (2 mmol/L). 2) To a 500 mL vessel, 149.5 mL of this buffer is added using a 50 mL measuring pipet; to this, 0.5 mL of the above-described 2 mmol/L NAC solution is added; and the content is mixed by inversion to achieve 300-fold dilution (6.667 μmon).
(§2) The test substance undiluted solution is defined as an “undiluted solution”, and used. Incidentally, this “undiluted solution” may be appropriately diluted to, for example, 1/10, 1/100, or 1/1000, using an appropriate solvent, and the resultant solution may be used.
(§3) Subsequently, the solution having the maximum dissolution concentration is defined as an “undiluted solution”, and tested. Incidentally, this “undiluted solution” may be appropriately diluted to, for example, 1/10, 1/100, or 1/1000, using an appropriate solvent, and the resultant solution may be used.
(§4) The test substance is prepared at 1 mmol/L in any of solvents that are water, acetonitrile, acetone, and a 5 mass % dimethyl sulfoxide (DMSO)/acetonitrile solution and used as a test substance solution. As the solvent, a solvent in which the test substance dissolves at 1 mmol/L is used; when the test substance is soluble in a plurality of solvents, the solvent is selected in the following order of decreasing precedence: water, acetonitrile, acetone, and 5 mass % DMSO/acetonitrile.
(§5) Test substance solutions are prepared on a 96-well plate (U96 PP-0.5 ML NATURAL, Thermo Fisher Scientific Inc. (NUNC)) mainly using a 12-channel pipette, and a reagent is added in accordance with the following formula.
(§6) Nucleophilic reagent (NAC and NAL): 150 μL
(§7) Test substance solution: 50 μL
(§8) The plate is tightly sealed using a plate sealing (Resistant embossed seal, SHIMADZU GLC Ltd.), and stirred using a plate shaker (Titramax 100, Heidolph Instruments GmbH & CO. KG). The plate is subjected to spinning down using a centrifuge, and then to incubation at 25° C., for 24 hours, in a light-shielded state.
(§9) After the incubation for 24 hours, the plate sealing is removed; to each sample, 50 µL of the reaction stopping solution is added to stop the reaction.
(§10) The HPLC measurement conditions for the nucleophilic reagents are as follows.
(§11) From the average values (each, n=3) of peak areas of the post-reaction unreacted NAC or NAL and the blank-test (after performing the reaction step without addition of the test substances) NAC or NAL, the following formula is used to calculate the depletion percent of NAC or NAL.
(§12) NAC depletion percent (% depletion)=[1−(Average value of peak areas of post-reaction unreacted NAC/Average value of peak areas of blank-test (after performing the reaction step without addition of the test substances) NAC)]×100
(§13) The average value of peak areas of the post-reaction unreacted NAC is the average value of areas obtained by measuring three times post-reaction unreacted NAC. The average value of peak areas of blank-test (after performing the reaction step without addition of the test substances) NAC is the average value of areas obtained by measuring three times blank-test (after performing the reaction step without addition of the test substances) NAC.
(§14) The reactions were each performed on a 96-well plate, and the number of samples of each case was set to n=3. In addition, as controls, reaction solutions including the solvent alone were prepared. The reaction solutions were prepared so as to have a NAC or NAL concentration of 5 μmon. To the reaction solutions after the lapse of 24 hours, a trifluoroacetic acid (TFA) aqueous solution was added such that the final concentration became 0.5% (v/v) TFA. Subsequently, HPLC was performed for measurements by two detection methods that were light absorption detection using a photodiode array (PDA) detector, and fluorescence detection using a fluorescence detector.

[2] = NAL depletion percent, HPLC-fluorescence detection
Experimental: as §1, with “12.6” for “11.6”, “NAL” for “NAC”, “10.2);” for “8.0);”, “mixture” for “mixer”, “mmol/L NAL solution).” for “mmol/L).”, “μmol/L).” for “μmon).”
as §2, §3, §4, §5, §6, §7, §8, §9, §10, §11
(§15) NAL depletion percent (% depletion)=[1−(Average value of peak areas of post-reaction unreacted NAL/Average value of peak areas of blank-test (after performing the reaction step without addition of the test substances) NAL)]×100
(§16) The average value of peak areas of post-reaction unreacted NAL is the average value of areas obtained by measuring three times post-reaction unreacted NAL. The average value of peak areas of blank-test (after performing the reaction step without addition of the test substances) NAL is the average value of areas obtained by measuring three times blank-test (after performing the reaction step without addition of the test substances) NAL.
as §14

[3] = Average score of NAC and NAL depletion and prediction of skin allergenicity, fluorescence method; conditions: for Average score: test substance solution 1 mmol/L; for determination of skin allergenicity from average score: criterion […]
Experimental: (§17) The average value (Average Score) of NAC and NAL depletion percents is calculated. In the resultant value, the second decimal place is rounded off.
(§18) Average value (Average Score) of NAC and NAL depletion percents=(NAC depletion percent+NAL depletion percent)/2
(§19) The depletion percent of at least one of NAC or NAL or the average score of the depletion percents of NAC and NAL is calculated, and whether or not the test substances are “allergenic substances” or “non-allergenic substances” is determined:
(§20) (1) in a case of performing evaluation based on the average value of the depletion percent of NAC and the depletion percent of NAL,
(§21) In the following Tables, S represents as being an allergenic substance and NS represents as being a non-allergenic substance.

[4] = NAC depletion percent, HPLC-UV detection (281 nm)
Experimental: as §1, §2, §3, §4, §5, §6, §7, §8, §9, §10, §11, §12, §13, §14

[5] = NAL depletion percent, HPLC-UV detection (281 nm)
Experimental: as §1, with “12.6” for “11.6”, “NAL” for “NAC”, “10.2);” for “8.0);”, “mixture” for “mixer”, “mmol/L NAL solution).” for “mmol/L).”, “μmol/L).” for “μmon).”
as §2, §3, §4, §5, §6, §7, §8, §9, §10, §11, §15, §16, §14

[6] = Average score of NAC and NAL depletion and prediction of skin allergenicity, UV method; conditions: for Average score: test substance solution 1 mmol/L; for Mean Depletion (%) (average score) / determination of skin allergenicity from average score: UV method; for determination of skin allergenicity from average score: criterion […]
Experimental: as §17, §18, §19, §20, §21

[7] = cited from earlier work
[8] = single substance, test substance solution 1 mmol/L, fluorescence method
[9] = single substance, fluorescence method, criterion average score […]
[10] = single substance, fluorescence method
[11] = single substance, test substance solution 1 mmol/L, Reference (UV method)
[12] = single substance, Reference (UV method), criterion average score […]
[13] = single substance, Reference (UV method)
[14] = known values, LLNA-test-based classification, − for non-allergenic substances
[15] = Fluorescence method, non-allergenic substance
[16] = Reference (UV method), non-allergenic substance
[17] = 1/1 (undiluted solution), fluorescence method, 25° C. 24 hours
[18] = 1/10 diluted solution, fluorescence method
[19] = 1/1 (undiluted solution), fluorescence method
[20] = 1/1 (undiluted solution), UV method
[21] = 1/10 diluted solution, UV method

Compound	NAC depletion (%) [1, 8]	NAL depletion (%) [2, 8]	Prediction result [3, 9]	Average score [3, 10]	NAC depletion (%) [4, 11]	NAL depletion (%) [5, 11]	Prediction result [6, 12]	Average score [6, 13]	EC3 (%) ([7]; in vivo)	EC3 (%) [7, 14]	other results
Fluorescein isothiocyanate	81.3%	97.6%	S (S represents as being an allergenic substance)	89.4%	73.6%	98.1%	S (S represents as being an allergenic substance)	85.8%	0.14%		
CCC=CC=CC=O [2,4-Heptadienal]	46.2%	11.8%	S (S represents as being an allergenic substance)	29.0%	35.8%	50.1%	S (S represents as being an allergenic substance)	42.9%		4%	
CCCCCCCCC(=O)Cl [Nonanoyl chloride]	8.9%	54.5%	S (S represents as being an allergenic substance)	31.7%	7.4%	39.4%	S (S represents as being an allergenic substance)	23.4%		1.8%	
CC(=O)C=Cc1ccccc1 [Benzylideneacetone]	67.3%	10.0%	S (S represents as being an allergenic substance)	38.6%	44.9%	7.2%	S (S represents as being an allergenic substance)	26.1%		3.7%	
Vinylpyridine	19.8%	3.6%	S (S represents as being an allergenic substance)	11.7%	18.1%	7.7%	S (S represents as being an allergenic substance)	12.9%		1.6%	
O=CC=O [Glyoxal]	24.9%	0.4%		12.7%	12.8%	0.8%		6.8%	1.4%		Prediction result [3]: S (key: S represents as being an allergenic substance; NS represents as being a non-allergenic substance); Prediction result [6]: S (key: S represents as being an allergenic substance; NS represents as being a non-allergenic substance)
O=C1C=CC(=O)C=C1 [p-Benzoquinone]	100.0%	71.8%		85.9%	96.5%	83.5%	S (S represents as being an allergenic substance)	90.0%		0.0099%	Prediction result [3]: S (key: S represents as being an allergenic substance; NS represents as being a non-allergenic substance)
CCCCCCC#CC(=O)OC [Methyl 2-nonynoate]	12.4%	3.2%	S (S represents as being an allergenic substance)	7.8%	15.0%	1.4%	S (S represents as being an allergenic substance)	8.2%		2.5%	
CCCCCC(C=O)=Cc1ccccc1 [α-Amylcinnamaldehyde]	0.3%	0.4%	NS (NS represents as being a non-allergenic substance)	0.3%	0.0%	1.6%	NS (NS represents as being a non-allergenic substance)	0.8%		11%	
CCCCO [1-Butanol]									−		NAC depletion (%) [1, 15]: 2.1%; NAL depletion (%) [2, 15]: 0.3%; NAC depletion (%) [4, 16]: 0.1%; NAL depletion (%) [5, 16]: 0.8%
CCCOC(=O)c1ccc(O)cc1 [Propylparaben]									−		NAC depletion (%) [1, 15]: 0.5%; NAL depletion (%) [2, 15]: 4.4%; NAC depletion (%) [4, 16]: 0.1%; NAL depletion (%) [5, 16]: 1.9%
C=O [Formaldehyde]									0.61%		Prediction result [3]: S (key: S represents as being an allergenic substance; NS represents as being a non-allergenic substance); Prediction result [6]: S (key: S represents as being an allergenic substance; NS represents as being a non-allergenic substance)
CC[C@H](CC[C@@H](C)[C@H]1CC[C@H]2[C@@H]3CC=C4C[C@@H](O)CC[C@]4(C)[C@H]3CC[C@]12C)C(C)C [β-sitosterol, β-Sitosterol]											NAC depletion (%) [1, 17]: 0.0%; NAC depletion (%) [1, 18]: 0.6%; NAL depletion (%) [2, 17]: 0.1%; NAL depletion (%) [2, 18]: 0.0%; Mean Depletion (%) (average score) [3, 19]: 0.1%; determination of skin allergenicity from average score [3, 19]: not having skin allergenicity; Mean Depletion (%) (average score) [3, 18]: 0.3%; determination of skin allergenicity from average score [3, 18]: not having skin allergenicity; NAC depletion (%) [4, 20]: 0.0%; NAC depletion (%) [4, 21]: 3.9%; NAL depletion (%) [5, 20]: 0.0%; NAL depletion (%) [5, 21]: 0.0%; Mean Depletion (%) (average score) ([6]; 1/1 (undiluted solution)): 0.0%; determination of skin allergenicity from average score ([6]; 1/1 (undiluted solution)): not having skin allergenicity; Mean Depletion (%) (average score) ([6]; 1/10 diluted solution): 1.9%; determination of skin allergenicity from average score ([6]; 1/10 diluted solution): not having skin allergenicity
